In the assay the test system is β-catenin-TCF-mediated reporter transcription activity in Colo 205 cells. Put plainly: Colo 205 reporter assay (TCF/LEF luciferase). The assay is classed as cell-based. Particulars: Homo sapiens, COLO 205, 5 h, Colo 205 TCF/LEF luciferase reporter, five hours after addition of compound; read-out: TCF reporter Colo205 IC50. Summed up:
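Luciferase signal from a TCF/LEF-driven reporter, stably integrated in Colo 205 colon cancer cells, was measured 5 h after compound addition.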
On the technique in general: A reporter such as luciferase makes a cellular process visible.

Structures are written as SMILES.

In general, IC50 refers to the point on the concentration scale where inhibition reaches its midpoint. As to `Cc1nc(N[C@H]2C[C@@H](COc3ccc(OC(F)(F)F)nc3)C2)nc2c1NC(=O)[C@H](C(C)C)N2C` [Compound 598, (S)-7-isopropyl-4,8-dimethyl-2-((cis-3-(((6-(trifluoromethoxy)pyridin-3-yl)oxy)methyl)cyclobutyl)amino)-7,8-dihydropteridin-6(5H)-one], the IC50 was less than 300 nM.
Take `CO[C@H](C)[C@H]1C(=O)Nc2c(C)nc(N[C@H]3C[C@H](Oc4cc(F)c(F)c(F)c4)C3)nc2N1C` [Compound 599, (S)-7-((R)—1-methoxyethyl)-4,8-dimethyl-2-((trans-3-(3,4,5-trifluorophenoxy)cyclobutyl)amino)-7,8-dihydropteridin-6(5H)-one]: the IC50 was less than 300 nM.
As to `Cc1nc(NCc2cnn(Cc3ccc(C(F)(F)F)nc3)c2)nc2c1NC(=O)C1(COC1)N2C` [Compound 600, 4′,8′-dimethyl-2′-(((1-((6-(trifluoromethyl)pyridin-3-yl)methyl)-1H-pyrazol-4-yl)methyl)amino)-5′,8′-dihydro-6′H-spiro[oxetane-3,7′-pteridin]-6′-one], the IC50 lay in the range of 1000 to 5000 nM.
In the case of `Cc1nc(NCc2ccn(Cc3ccc(C(F)(F)F)nc3)n2)nc2c1NC(=O)C1(CC(F)(F)C1)N2C` [Compound 601, 3,3-difluoro-4′,8′-dimethyl-2′-(((1-((6-(trifluoromethyl)pyridin-3-yl)methyl)-1H-pyrazol-3-yl)methyl)amino)-5′,8′-dihydro-6′H-spiro[cyclobutane-1,7′-pteridin]-6′-one] it was 300 to 1000 nM; in that of `COc1cc(F)ccc1CN1CC(Nc2nc(C)c3c(n2)N(C)[C@@H](C(C)C)C(=O)N3)C1` [Compound 603, (S)-2-((1-(4-fluoro-2-methoxybenzyl)azetidin-3-yl)amino)-7-isopropyl-4,8-dimethyl-7,8-dihydropteridin-6(5H)-one], 300 to 1000 nM; in that of `Cc1nc(NCc2cnn(Cc3ccc(C(F)(F)F)nc3)c2)nc2c1NC(=O)[C@H](CO)N2C` [Compound 604, (S)-7-(hydroxymethyl)-4,8-dimethyl-2-(((1-((6-(trifluoromethyl)pyridin-3-yl)methyl)-1H-pyrazol-4-yl)methyl)amino)-7,8-dihydropteridin-6(5H)-one], 1000 to 5000 nM.
Under `Cc1nc(NC2CN(C(=O)c3cocn3)C2)nc2c1NC(=O)[C@H](C(C)C)N2C` [Compound 605, (S)-7-isopropyl-4,8-dimethyl-2-((1-(oxazole-4-carbonyl)azetidin-3-yl)amino)-7,8-dihydropteridin-6(5H)-one] stands no less than 5000 nM.
In the case of `Cc1nc(NC2CN(C(=O)CC3CC(F)(F)C3)C2)nc2c1NC(=O)[C@H](C(C)C)N2C` [Compound 606, (S)-2-((1-(2-(3,3-difluorocyclobutyl)acetyl)azetidin-3-yl)amino)-7-isopropyl-4,8-dimethyl-7,8-dihydropteridin-6(5H)-one] it was 300 to 1000 nM; in that of `Cc1nc(NC2CN(C(=O)c3ccc(OC(F)(F)F)nc3)C2)nc2c1NC(=O)[C@H](C(C)C)N2C` [Compound 607, (S)-7-isopropyl-4,8-dimethyl-2-((1-(6-(trifluoromethoxy)nicotinoyl)azetidin-3-yl)amino)-7,8-dihydropteridin-6(5H)-one], less than 300 nM; in that of `Cc1nc(NCc2cnn(Cc3ccnc(Cl)c3)c2)nc2c1NC(=O)[C@H](C1CC1)N2C` [Compound 608, (S)-2-(((1-((2-chloropyridin-4-yl)methyl)-1H-pyrazol-4-yl)methyl)amino)-7-cyclopropyl-4,8-dimethyl-7,8-dihydropteridin-6(5H)-one], less than 300 nM.
For `Cc1nc(NC2CN(C(=O)c3cn(C)nc3C(F)(F)F)C2)nc2c1NC(=O)[C@H](C(C)C)N2C` [Compound 609, (S)-7-isopropyl-4,8-dimethyl-2-((1-(1-methyl-3-(trifluoromethyl)-1H-pyrazole-4-carbonyl)azetidin-3-yl)amino)-7,8-dihydropteridin-6(5H)-one], the IC50 lay in the range of 1000 to 5000 nM.
Take `Cc1nc(C(=O)N2CC(Nc3nc(C)c4c(n3)N(C)[C@@H](C(C)C)C(=O)N4)C2)co1` [Compound 610, (S)-7-isopropyl-4,8-dimethyl-2-((1-(2-methyloxazole-4-carbonyl)azetidin-3-yl)amino)-7,8-dihydropteridin-6(5H)-one]: the IC50 is no less than 5000 nM.
As to `Cc1nc(NC2CN(C(=O)C3CCCCO3)C2)nc2c1NC(=O)[C@H](C(C)C)N2C` (stereo partly drawn) [Compound 611, (7S)-7-isopropyl-4,8-dimethyl-2-((1-(tetrahydro-2H-pyran-2-carbonyl)azetidin-3-yl)amino)-7,8-dihydropteridin-6(5H)-one], the IC50 is no less than 5000 nM.
Under `Cc1nc(NC2CN(C(=O)COc3ccccc3C(F)(F)F)C2)nc2c1NC(=O)[C@H](C(C)C)N2C` [Compound 612, (S)-7-isopropyl-4,8-dimethyl-2-((1-(2-(2-(trifluoromethyl)phenoxy)acetyl)azetidin-3-yl)amino)-7,8-dihydropteridin-6(5H)-one] stands less than 300 nM.
Take `Cc1nc(NC2CN(C(=O)c3csc(C(F)(F)F)n3)C2)nc2c1NC(=O)[C@H](C(C)C)N2C` [Compound 613, (S)-7-isopropyl-4,8-dimethyl-2-((1-(2-(trifluoromethyl)thiazole-4-carbonyl)azetidin-3-yl)amino)-7,8-dihydropteridin-6(5H)-one]: the IC50 is 300 to 1000 nM.
With `Cc1nc(NC2CN(C(=O)c3ccn(C(F)F)n3)C2)nc2c1NC(=O)[C@H](C(C)C)N2C` [Compound 614, (S)-2-((1-(1-(difluoromethyl)-1H-pyrazole-3-carbonyl)azetidin-3-yl)amino)-7-isopropyl-4,8-dimethyl-7,8-dihydropteridin-6(5H)-one], the IC50 lay within 1000 to 5000 nM.
In the case of `Cc1nc(NC2CN(C(=O)c3ccc(OCC(F)(F)F)nc3)C2)nc2c1NC(=O)[C@H](C(C)C)N2C` [Compound 615, (S)-7-isopropyl-4,8-dimethyl-2-((1-(6-(2,2,2-trifluoroethoxy)nicotinoyl)azetidin-3-yl)amino)-7,8-dihydropteridin-6(5H)-one] it was 300 to 1000 nM.
Under `Cc1nc(NC2CN(C(=O)Cc3ccc(F)cc3F)C2)nc2c1NC(=O)[C@H](C(C)C)N2C` [Compound 616, (S)-2-((1-(2-(2,4-difluorophenyl)acetyl)azetidin-3-yl)amino)-7-isopropyl-4,8-dimethyl-7,8-dihydropteridin-6(5H)-one] stands 300 to 1000 nM.
In the case of `Cc1nc(NC2CN(C(=O)c3cnon3)C2)nc2c1NC(=O)[C@H](C(C)C)N2C` [Compound 617, (S)-2-((1-(1,2,5-oxadiazole-3-carbonyl)azetidin-3-yl)amino)-7-isopropyl-4,8-dimethyl-7,8-dihydropteridin-6(5H)-one] it was no less than 5000 nM; in that of `Cc1nc(NC2CN(C(=O)Cc3ccc(F)cc3)C2)nc2c1NC(=O)[C@H](C(C)C)N2C` [Compound 618, (S)-2-((1-(2-(4-fluorophenyl)acetyl)azetidin-3-yl)amino)-7-isopropyl-4,8-dimethyl-7,8-dihydropteridin-6(5H)-one], 300 to 1000 nM; in that of `Cc1nc(NC2CN(C(=O)c3cc(C(C)C)on3)C2)nc2c1NC(=O)[C@H](C(C)C)N2C` [Compound 619, (S)-7-isopropyl-2-((1-(5-isopropylisoxazole-3-carbonyl)azetidin-3-yl)amino)-4,8-dimethyl-7,8-dihydropteridin-6(5H)-one], 1000 to 5000 nM.

The record behind these values is patent US20230312587A1, “PTERIDINONE COMPOUNDS AND USES THEREOF” (Vertex Pharmaceutical Incorporated, priority 2018, published 2023).
